According to patent US9200008B2 (ASKA PHARMACEUTICAL CO., LTD., priority 2010, dated 2015):

Test system: Human prostate cancer cell lines (PC-3 cells)
Experiment: Measurement of cell death-inducing activity (Test Example 1)
Type: cell-based
Details: PC-3, 48 h, 48 hours after addition, tested at 10, 1, 0.1, 0.025 and 0.00625 μmol/L, qualitative evaluation of 10 fields, read-out: Concentration showing the cell death-inducing activity (cell death-inducing rate not less than 40%)
Summary of the method: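 Compound treatment lasted 48 h at 10 to 0.00625 μmol/L (five levels, DMSO as control) on PC-3 cells pre-cultured 48 h at 37 °C, 5% CO2 after seeding at 1×10^5 cells/well. A cell death-inducing rate of 40% or more counted as active.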

Structure (SMILES) | minimal effective concentration [µM]
CCn1nc(-c2ccc(F)cc2OC)cc1NC(=O)OCc1ccc2c(cnn2C)c1 [Example 9-279] | 1
Cc1ccc(-c2nc(C)c(NC(=O)OCc3ccc4c(c3)nc3n4CCOC3)s2)c(C)c1 [Example 9-96] | 0.00625
COc1ccc(/C=N/NC(=O)c2sc(-c3ccc(Cl)cc3)nc2C)cc1B(O)O [Example 23-140] | 1
COc1ccc(/C=N/NC(=O)c2[nH]c(-c3ccc(Cl)cc3)nc2C)cc1O [Example 25-5, 2-(4-Chlorophenyl)-5-methyl-3H-imidazole-4-carboxylic acid[1-(3-hydroxy-4-methoxyphenyl)methylidene]hydrazide] | 10
CCn1cnc2cc(NC(=O)OCc3sc(-c4ccc(Cl)cc4OC)nc3C)ccc21 [Example 13-13] | 0.1
COc1cc(Cl)ccc1-c1cc(NC(=O)OC(C)c2ccc3c(c2)ncn3C)n(C)n1 (centres unmarked) [Example 9-338] | 10
CCn1nc(-c2ccc(F)cc2OC)cc1NC(=O)OCc1ccc2c(c1)ncn2C [Example 9-218] | 0.025
Cc1cc(F)ccc1-c1nc(C)c(COC(=O)Nc2ccc3c(c2)nc2n3CCOC2)s1 [Example 13-25] | 0.025
COc1ccc(-c2nc(C)c(NC(=O)OCc3ccc4c(c3)nc3n4CCOC3)s2)c(OC)c1 [Example 9-95] | 0.025
COc1cc(Cl)ccc1-c1nc(C)c(NC(=O)OCc2ccc3c(c2)ncn3C(C)C)s1 [Example 9-71] | 0.025
COc1ccccc1-c1nc(C)c(COC(=O)Nc2ccc3c(c2)nc2n3CCOC2)s1 [Example 13-22] | 10
Cc1nc(-c2ccccc2F)sc1NC(=O)OCc1ccc2c(c1)ncn2C [Example 9-43] | 1
CCc1nc(-c2ccc(Cl)cc2OC)sc1NC(=O)OCc1ccc2c(cnn2CC)c1 [Example 9-173] | 0.025
CCn1c(C)nc2cc(NC(=O)OCc3sc(-c4ccc(Cl)cc4C)nc3C)ccc21 [Example 13-21] | 0.1
Cc1cc(/C=N/NC(=O)c2cc(-c3ccc(Cl)cc3Cl)ns2)cc(C)c1O [Example 27-4] | 1
Cc1ccc(-c2nc(C)c(NC(=O)OCc3ccc4nn(C)cc4c3)s2)c(C)c1 [Example 9-147] | 0.025
COc1ccc(/C=N/N=C(\C)c2sc(-c3ccc(Cl)cc3)nc2C)cc1O [Example 30-2] | 1
COc1cc(Cl)ccc1-c1cc(C(=O)N/N=C/c2cc(C)c(O)c(C)c2)[nH]n1 [Example 22-9] | 0.1
Cc1ccc(-c2nc(C)c(COC(=O)Nc3ccc4c(c3)nc3n4CCSC3)s2)c(C)c1 [Example 43-3] | 0.1
CCn1nc(-c2ccc(C)cc2C)cc1NC(=O)OCc1ccc2c(c1)nc1n2CCOC1 [Example 9-252] | 0.1
CCn1ncc2cc(COC(=O)Nc3sc(-c4ccc(OC)cc4OC)nc3C)ccc21 [Example 9-138] | 0.025
CCc1nc(-c2ccc(Cl)cc2)sc1C(=O)N/N=C/c1cc(C)c(O)c(C)c1 [Example 23-106] | 1
CCc1nc(-c2ccc(C)cc2OC)sc1NC(=O)OCc1ccc2c(c1)nc1n2CCCC1 [Example 9-353] | 0.1

Structure (SMILES) | minimal effective concentration [µM]
COc1ccc(/C=N/NC(=O)c2sc(-c3cccc(F)c3)nc2C)cc1 [Example 23-66] | 1
CCc1nc(-c2ccccc2OC)sc1NC(=O)OCc1ccc2nn(CC)cc2c1 [Example 9-367] | 1
CCn1nc(-c2ccc(Cl)cc2OC)cc1COC(=O)Nc1ccc2c(cnn2C)c1 [Example 13-128] | 1
COc1ccccc1-c1cc(C(=O)N/N=C/c2cc(C)c(O)c(C)c2)[nH]n1 [Example 22-6] | 1
COc1ccc(/C=N/NC(=O)c2sc(-c3ccc(Cl)cc3OC)nc2C)cn1 [Example 23-85] | 1
Cc1ccc(-c2nc(C)c(COC(=O)Nc3ccc4sc(C)nc4c3)s2)c(C)c1 [Example 42-1, (2-Methylbenzothiazol-5-yl)carbamic acid 2-(2,4-dimethylphenyl)-4-methylthiazol-5-ylmethyl ester] | 1
COc1cc(C)ccc1-c1cc(COC(=O)Nc2ccc3c(c2)ncn3C)n(C)n1 [Example 13-88] | 0.00625
CCn1ncc2cc(NC(=O)OCc3sc(-c4ccc(C)cc4C)nc3C)ccc21 [Example 13-45] | 0.1
CCc1nc(-c2ccc(F)cc2C)sc1COC(=O)Nc1ccc2c(c1)nc1n2CCOC1 [Example 13-150] | 0.025
COc1cc(C)ccc1-c1cc(NC(=O)OCc2ccc3nn(C)cc3c2)n(C)n1 [Example 9-293] | 0.1
Cc1ccccc1-c1nc(C)c(NC(=O)OCc2ccc3c(c2)nc2n3CCC2)s1 [Example 9-99] | 1
CCCc1nc(-c2ccc(Cl)cc2)sc1C(=O)N/N=C/c1ccc(OC)c(O)c1 [Example 23-102] | 10
CCn1nc(-c2ccc(F)cc2OC)cc1COC(=O)Nc1ccc2c(c1)nc1n2CCC1 [Example 13-107] | 0.025
Cc1nc(-c2cccc3c2OCC3)sc1NC(=O)OCc1ccc2c(c1)nnn2C [Example 9-21] | 10
COc1ccc(/C=N/NC(=O)c2sc(-c3ccc(Cl)cc3)nc2C(C)(C)C)cc1O [Example 23-20] | 10
COc1cccc(/C=N/NC(=O)c2sc(-c3ccc(Cl)cc3OC)nc2C)c1 [Example 23-80] | 1
COc1ccc(/C=N/NC(=O)c2sc(-c3ccc(Cl)cc3)nc2C)c(Cl)c1O [Example 23-61] | 1
C/C(=N\N=C\c1cc(C)c(O)c(C)c1)c1sc(-c2ccc(Cl)cc2)nc1C [Example 30-1, 4-{[1-[2-(4-Chlorophenyl)-4-methylthiazol-5-yl]ethylidene]hydrazonomethyl}-2,6-dimethyl-phenol] | 10
Cn1nc(-c2ccc(Cl)cc2Cl)cc1NC(=O)OCc1ccc2c(cnn2C)c1 [Example 9-275] | 1
Cn1nc(-c2ccccc2C(F)(F)F)cc1NC(=O)OCc1ccc2c(cnn2C)c1 [Example 9-278] | 10
CCn1ncc2cc(NC(=O)OCc3cc(-c4ccc(Cl)cc4OC)nn3C)ccc21 [Example 13-129] | 0.025
COc1ccc(/C=N/NC(=O)c2sc(-c3ccc(Cl)cc3C)nc2C)cc1O [Example 23-46] | 0.025
CCc1nc(-c2ccc(C)cc2OC)sc1NC(=O)OCc1ccc2c(c1)nc1n2CCC1 [Example 9-171] | 0.025

Structure (SMILES) | minimal effective concentration [µM]
COc1cc(Cl)ccc1-c1cc(C(=O)N/N=C/c2ccc3c(c2)ncn3C)n(C)n1 [Example 21-25] | 0.1
Cc1ccccc1-c1cc(NC(=O)OCc2ccc3c(cnn3C)c2)n(C)n1 [Example 9-277] | 10
CCc1nc(-c2ccc(Cl)cc2OC)sc1NC(=O)OCc1ccc2nn(C)cc2c1 [Example 9-364] | 0.025
COc1ccc(COC(=S)Nc2sc(-c3ccc(Cl)cc3OC)nc2C)cc1 [Example 28-1, [2-(4-Chloro-2-methoxyphenyl)-4-methylthiazol-5-yl]thiocarbamic acid O-(4-methoxybenzyl)ester] | 10
CCn1cnc2cc(COC(=O)Nc3cc(-c4ccccc4OC)nn3C)ccc21 [Example 9-215] | 0.1
Cc1cc(F)ccc1-c1nc(C)c(COC(=O)Nc2ccc3nn(C)cc3c2)s1 [Example 13-49] | 0.1
CCn1cnc2cc(NC(=O)OCc3sc(-c4ccc(Cl)cc4C)nc3C)ccc21 [Example 13-17] | 0.025
COc1ccccc1-c1cc(NC(=O)OCc2ccc3c(c2)nc2n3CCCC2)n(C)n1 [Example 9-263] | 1
CCc1nc(-c2ccc(Cl)cc2OC)sc1NC(=O)OCc1ccc2nn(CC)cc2c1 [Example 9-176] | 0.025
O=C(N/N=C/c1ccc(O)c(Cl)c1)c1cc(-c2ccc(Cl)cc2Cl)n[nH]1 [Example 21-13] | 10
O=C(N/N=C/c1ccc(O)cc1Cl)c1cc(-c2ccc(Cl)cc2Cl)n[nH]1 [Example 21-8] | 10
CCCc1nc(-c2ccc(Cl)cc2OC)sc1NC(=O)OCc1ccc2c(c1)ncn2C [Example 9-183] | 1
COc1ccc(CN(C)NC(=O)c2sc(-c3ccccc3OC)nc2C)cc1 [Example 16-4] | 1
CCn1nc(-c2ccc(C)cc2OC)cc1COC(=O)Nc1ccc2c(cnn2C)c1 [Example 13-130] | 1
CCc1nc2cc(COC(=O)Nc3cc(-c4ccc(Cl)cc4Cl)nn3C)ccc2n1C [Example 9-241] | 10
COc1cc(C)ccc1-c1cc(COC(=O)Nc2ccc3c(c2)nc2n3CCCC2)n(C)n1 [Example 13-120] | 0.025
CCn1nc(-c2ccc(C)cc2OC)cc1COC(=O)Nc1ccc2c(c1)nc1n2CCOC1 [Example 13-102] | 0.025
Cc1ccc(-c2nc(C)c(C(=O)N/N=C/c3cc(C)c(O)c(C)c3)s2)c(C)c1 [Example 23-122] | 0.1
CCn1cnc2cc(COC(=O)Nc3cc(-c4ccc(F)cc4OC)nn3C)ccc21 [Example 9-219] | 0.025
CCc1nc(-c2ccccc2OC)sc1NC(=O)OCc1ccc2c(c1)ncn2CC [Example 9-162] | 0.1
COc1cc(Cl)ccc1-c1nc(C)c(NC(=O)OCc2ccc3nn(C)cc3c2)s1 [Example 9-144] | 0.025
COc1ccccc1-c1cc(C(=O)N/N=C/c2cc(C)c(O)c(C)c2)sn1 [Example 27-8] | 0.1
